From patent publication US11180486B2, “Indolylkojyl methane analogues, process of preparation thereof and use as inhibitor of cancer cells invasion and metastasis” (Council of Scientific & Industrial Research, priority 2017, dated 2021)
Several values for one entry are separate records, joined by “and”; a condition that tells them apart may be missing. Identical values can stand only once. Entries after “also recorded” stand apart in the source; their conditions may differ.

Assays:
[1] = tested on: normal breast epithelial (fR2) cells; experiment: Cell viability (MTT) assay, normal cells; format: cell-based, human
Description: Cell Culture and Reagents. The cell lines used in this study were procured from American Type Culture Collection (ATCC), Manassas, USA. MCF7, T47D and fR2 cells were cultured in RPMI-1640 medium, whereas the MDA-MB-231 cells were grown in Leibovitz's (L-15) medium supplemented with 10% fetal bovine serum (Gibco) and 1% penicillin/streptomycin (Sigma) in a humidified CO2 incubator (New Brunswick Galaxy 170 R) with 5% CO2. Reagents such as phenylmethylsulfonyl fluoride (PMSF), dithiothreitol (DTT), DMSO, crystal violet, and Bradford's reagent were purchased from Sigma-Aldrich. Protease inhibitor cocktail was procured from Roche. The antibodies for human GRP78, Par-4, MMP-2, MMP-9, NF-kB, E-cadherin and TIMP-1 were procured from Santa-Cruz Biotechnology. The β-actin antibody and the secondary antibodies such as anti-rabbit IgG and anti-mouse IgG were procured from Sigma-Aldrich.
Cell Viability Assay. The cell viability was determined by standard MTT assay method. […] The amount of coloured formazan derivatives formed was measured by taking optical density (OD) using a microplate reader (TECAN, Infinite M200 Pro) at 570 nm and the percentage cell viability was calculated. The IC50 values were calculated using GraphPad Prism software (Version 5.0). […]

Par-4 = experiment: Immunoblotting, expression of Par-4; format: cell-based, human
Description: Immunoblotting. MDA-MB-231 and MCF7 cells (0.5×10^6) were plated in six well plates for overnight in a humidified CO2 incubator and then exposed to varying concentrations of 5 (50, 100 and 200 nM) for 24 h along with vehicle (dose dependent study) and 200 nM of 5 for various time points like; 0, 6, 12, 24 and 48 h (time dependent study). Cells were then harvested, washed with chilled PBS and lysed with lysis buffer (HEPES 1 mM, KCl 60 mM, NP-40 0.3%, EDTA 1 mM, DTT 1 mM, sodium orthovanadate 1 mM, PMSF 0.1 mM and cocktail protease inhibitor). The cell extractions were centrifuged at 12,000 rpm for 10 min at 4° C. Protein concentration was measured by the standard Bradford method. […] Immunoreactive proteins were detected by Enhanced Chemiluminescence Plus (Thermo) (Rah et al., 2012, PloS one, 7(9), p.e44039.).
Drug Potentiation Assay. […] The ability of 5 to enhance cell killing was expressed as potentiation index (PI), which was the ratio of the % inhibition of 5 alone at the given dose and the % inhibition in combination with doxorubicin. […]

MDA-MB-231 cells = experiment: Cell scattering assay (bFGF stimulated); format: cell-based, human; conditions: bFGF plus 200 nM, 48 h, vs bFGF alone
Description: (§1) Cell Scattering Assay. The procedure was followed according to the previously described method (Amin et al., 2015, Mol. Carcinog). Briefly, MDA-MB-231 and MCF7 cells were trypsinized, seeded in 6 well plates at a density of 1000 cells/well and incubated for 5 days for the formation of small colonies. On the sixth day, exhausted media was replaced by fresh media and cells were stimulated with bFGF (20 ng/mL) along with 5 (200 nM) or doxorubicin for 48 h. Cells were then washed with PBS and photographs were taken under inverted microscope at 20× magnification.

MCF7 cells = experiment: Cell scattering assay (bFGF stimulated); format: cell-based, human; conditions: bFGF plus 200 nM, 48 h, vs bFGF alone
Description: as §1

[2] = tested on: mouse mammary carcinoma (4T1) cells; format: in vivo
Description: In Vivo Anti-Tumor and Anti-Metastatic Efficacy Studies. To evaluate the antitumor and antimetastatic effect of 5 in vivo, healthy female Balb/c mice (b.w. 18-23 g) were taken. The experimental protocols were approved by the Institutional Animal Ethics Committee, CPCSEA, of Indian Institute of Integrative Medicine, Jammu. The animals were maintained at 22° C. with a 12 h light-dark cycle and free access to feed and water inside the institutional animal house. Proper care was taken to maintain them in a healthy condition and to avoid any risk of possible pathogenic contaminations. For subcutaneous implantation, the mice were randomized into two groups of 5 mice per group and 1.5 million mouse mammary carcinoma (4T1) cells in serum free RPMI media were injected subcutaneously into the mammary fat pad of each mouse. Either 1 week after the tumor cell implantation or when the tumor volume reached ˜150 mm^3, mice were injected intraperitoneally with either normal saline (NS) or parent compound 1 (100 mg/kg, b.w.) or 5 (30 mg/kg, b.w.) in each alternate days for two weeks. Tumor size was recorded on each alternate days post-cell injection and body weights were recorded once per week. Mice were sacrificed on the 15th day of treatment initiation and tumors were incised for its measurement. Metastatic lung nodules were counted using a dissecting microscope. Lungs were then minced into fine pieces, suspended in medium containing collagenase and kept in 37° C. incubator with vigorous shaking for 2 h. The suspension was then filtered with the help of 70 μm cell strainer (BD, USA) to get the single cell suspension. Then, the suspension was serially diluted for 3-4 times in selection medium containing 6-thioguanine, for the selection of 4T1 cells. Each dilution containing the lung cell suspension was then plated into individual petridishes and incubated at 37° C. and 5% CO2 for the growing of 4T1 cell colonies. After 15 days of incubation, cells were washed with PBS, fixed with methanol and stained with 0.2% crystal violet solution for 1 h. Images of the 4T1 colonies were observed, counted and photographed under an inverted microscope at 20× magnification.

Structure (SMILES): CCCCCCCC(c1oc(CO)cc(=O)c1O)c1c[nH]c2ccccc12 (stereo not drawn) [Compound 5, 2-{1-(1H-indol-3-yl)octyl}-3-hydroxy-6-(hydroxymethyl)-4H-pyran-4-one]
- IC50 ([1]; Homo sapiens, FR2, MTT, 44 h + 4 h, mean ± SD of three experiments): 74 µM
- toxicity towards normal breast epithelial (fR2) cells ([1]; in words): non-toxic; also recorded: less/non-toxic
- increase in the expression of Par-4 (Par-4; MDA-MB-231, 5 and doxorubicin in combination, 24 h, vs each alone, densitometry): 5.8 fold
- expression of Par-4 (Par-4; MDA-MB-231 cells, dose dependent): induced significantly
- cell scattering inhibited (MDA-MB-231 cells): 80%
- cell scattering inhibited (MCF7 cells): 84.5%
- decrease in metastatic lung nodules ([2]; 30 mg/kg b.w. i.p., alternate days for two weeks): 84.5%
- inhibition in tumor growth ([2]; 30 mg/kg b.w. i.p., alternate days for two weeks, vs normal saline): 79.2% and 67%
- colony formation by 4T1 cells in lung suspension ([2]; 30 mg/kg b.w., compared to 1 and vehicle treated animals): inhibited drastically
